Experimental data: the kinase profiling compilation of Christmann-Franck et al. (2016)
“And” between values parts separate entries of the source, which are not always exact repeats. Equal values may be shown once.

How the values were obtained:
Assay in all cases: Caliper, Mobility shift assay off-chip
AURKA (human) = AURKA (human) (UniProt O14965)
CAMK1D (human) = CAMK1D (human) (UniProt Q8IU85)
CLK1 (human) = CLK1 (human) (UniProt P49759)
CSNK1A1 (human) = CSNK1A1 (human) (UniProt P48729)
DDR1 (human) = DDR1 (human) (UniProt Q08345)
EPHA2 (human) = EPHA2 (human) (UniProt P29317)
INSR (human) = INSR (human) (UniProt P06213)
MARK1 (human) = MARK1 (human) (UniProt Q9P0L2)
MARK2 (human) = MARK2 (human) (UniProt Q7KZI7)
MST1R (human) = MST1R (human) (UniProt Q04912)
NEK6 (human) = NEK6 (human) (UniProt Q9HC98)
NTRK3 (human) = NTRK3 (human) (UniProt Q16288)
NUAK1 (human) = NUAK1 (human) (UniProt O60285)
PAK4 (human) = PAK4 (human) (UniProt O96013)
PASK (human) = PASK (human) (UniProt Q96RG2)
PLK1 (human) = PLK1 (human) (UniProt P53350)
PRKCB1 (human) = PRKCB1 (human) (UniProt P05771)
PRKCD (human) = PRKCD (human) (UniProt Q05655)
PRKCH (human) = PRKCH (human) (UniProt P24723)
PRKD2 (human) = PRKD2 (human) (UniProt Q9BZL6)
PRKD3 (human) = PRKD3 (human) (UniProt O94806)
PRKG2 (human) = PRKG2 (human) (UniProt Q13237)
ROCK1 (human) = ROCK1 (human) (UniProt Q13464)
SGK2 (human) = SGK2 (human) (UniProt Q9HBY8)
SPHK1 (human) = SPHK1 (human) (UniProt Q9NYA1)
SRC (human) = SRC (human) (UniProt P12931)
SRPK3 (human) = SRPK3 (human) (UniProt Q9UPE1)
STK3 (human) = STK3 (human) (UniProt Q13188)
TAB1 (human) = TAB1 (human) (UniProt Q15750)
TEC (human) = TEC (human) (UniProt P42680)
TNK1 (human) = TNK1 (human) (UniProt Q13470)
ZAP70 (human) = ZAP70 (human) (UniProt P43403)
PDGFRB (human) = PDGFRB (human) (UniProt P09619)

PRKCH (human), sequence (P24723 whole entry, looked up): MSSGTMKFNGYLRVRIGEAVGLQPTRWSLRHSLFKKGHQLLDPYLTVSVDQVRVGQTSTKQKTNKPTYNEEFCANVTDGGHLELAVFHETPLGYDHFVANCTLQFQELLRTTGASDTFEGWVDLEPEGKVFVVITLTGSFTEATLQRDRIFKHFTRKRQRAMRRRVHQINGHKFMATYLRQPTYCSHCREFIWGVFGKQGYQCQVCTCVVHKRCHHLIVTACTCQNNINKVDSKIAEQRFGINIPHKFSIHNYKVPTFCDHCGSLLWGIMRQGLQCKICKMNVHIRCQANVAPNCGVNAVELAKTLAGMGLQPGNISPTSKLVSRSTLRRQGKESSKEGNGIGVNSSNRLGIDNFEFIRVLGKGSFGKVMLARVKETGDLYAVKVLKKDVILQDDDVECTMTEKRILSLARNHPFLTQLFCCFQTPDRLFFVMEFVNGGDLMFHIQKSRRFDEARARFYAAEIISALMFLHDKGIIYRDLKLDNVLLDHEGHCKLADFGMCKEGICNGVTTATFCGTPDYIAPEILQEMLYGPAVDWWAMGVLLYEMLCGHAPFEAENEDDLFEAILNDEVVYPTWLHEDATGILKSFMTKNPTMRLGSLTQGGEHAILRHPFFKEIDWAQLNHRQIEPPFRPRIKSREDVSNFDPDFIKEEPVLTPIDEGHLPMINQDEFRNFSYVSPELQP
DDR1 (human), sequence (Q08345 whole entry, looked up): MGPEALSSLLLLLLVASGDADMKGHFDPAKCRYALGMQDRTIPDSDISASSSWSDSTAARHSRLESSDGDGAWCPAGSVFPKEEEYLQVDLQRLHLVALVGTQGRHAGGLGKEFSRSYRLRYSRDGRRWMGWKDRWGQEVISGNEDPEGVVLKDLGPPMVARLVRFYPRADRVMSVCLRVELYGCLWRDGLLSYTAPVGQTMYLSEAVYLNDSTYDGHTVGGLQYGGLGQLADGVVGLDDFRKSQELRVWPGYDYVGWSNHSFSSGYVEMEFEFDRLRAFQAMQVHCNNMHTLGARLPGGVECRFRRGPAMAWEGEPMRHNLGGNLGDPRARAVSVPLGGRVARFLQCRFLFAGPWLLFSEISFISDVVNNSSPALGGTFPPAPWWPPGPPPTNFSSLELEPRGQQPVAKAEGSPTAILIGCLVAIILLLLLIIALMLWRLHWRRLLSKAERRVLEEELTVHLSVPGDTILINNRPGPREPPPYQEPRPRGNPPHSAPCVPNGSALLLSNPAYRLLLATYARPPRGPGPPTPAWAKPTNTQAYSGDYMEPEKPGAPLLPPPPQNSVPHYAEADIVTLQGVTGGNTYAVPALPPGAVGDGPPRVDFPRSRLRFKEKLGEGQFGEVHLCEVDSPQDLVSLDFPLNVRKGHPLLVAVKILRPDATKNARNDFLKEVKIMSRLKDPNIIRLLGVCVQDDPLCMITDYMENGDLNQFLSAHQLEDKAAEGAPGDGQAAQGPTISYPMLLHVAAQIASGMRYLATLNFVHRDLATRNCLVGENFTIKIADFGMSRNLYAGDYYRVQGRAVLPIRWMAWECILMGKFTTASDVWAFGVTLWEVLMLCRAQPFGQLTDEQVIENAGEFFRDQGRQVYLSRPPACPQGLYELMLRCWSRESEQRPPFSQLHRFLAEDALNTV
PAK4 (human), sequence (O96013 whole entry, looked up): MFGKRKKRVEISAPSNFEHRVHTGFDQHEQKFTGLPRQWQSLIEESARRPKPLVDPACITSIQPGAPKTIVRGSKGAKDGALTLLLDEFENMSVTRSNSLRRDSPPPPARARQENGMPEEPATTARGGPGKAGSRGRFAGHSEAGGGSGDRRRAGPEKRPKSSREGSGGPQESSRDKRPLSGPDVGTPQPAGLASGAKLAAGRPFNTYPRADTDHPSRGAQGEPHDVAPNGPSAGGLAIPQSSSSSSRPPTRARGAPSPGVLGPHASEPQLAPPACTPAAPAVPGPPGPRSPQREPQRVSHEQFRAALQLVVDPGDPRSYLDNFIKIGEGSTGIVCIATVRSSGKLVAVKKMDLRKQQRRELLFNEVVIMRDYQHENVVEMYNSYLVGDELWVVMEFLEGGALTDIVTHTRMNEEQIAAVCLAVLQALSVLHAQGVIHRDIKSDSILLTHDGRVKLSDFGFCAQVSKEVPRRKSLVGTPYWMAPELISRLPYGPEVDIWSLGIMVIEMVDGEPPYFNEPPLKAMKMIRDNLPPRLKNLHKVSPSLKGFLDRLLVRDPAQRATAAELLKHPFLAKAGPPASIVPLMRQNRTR
ZAP70 (human), sequence (P43403 whole entry, looked up): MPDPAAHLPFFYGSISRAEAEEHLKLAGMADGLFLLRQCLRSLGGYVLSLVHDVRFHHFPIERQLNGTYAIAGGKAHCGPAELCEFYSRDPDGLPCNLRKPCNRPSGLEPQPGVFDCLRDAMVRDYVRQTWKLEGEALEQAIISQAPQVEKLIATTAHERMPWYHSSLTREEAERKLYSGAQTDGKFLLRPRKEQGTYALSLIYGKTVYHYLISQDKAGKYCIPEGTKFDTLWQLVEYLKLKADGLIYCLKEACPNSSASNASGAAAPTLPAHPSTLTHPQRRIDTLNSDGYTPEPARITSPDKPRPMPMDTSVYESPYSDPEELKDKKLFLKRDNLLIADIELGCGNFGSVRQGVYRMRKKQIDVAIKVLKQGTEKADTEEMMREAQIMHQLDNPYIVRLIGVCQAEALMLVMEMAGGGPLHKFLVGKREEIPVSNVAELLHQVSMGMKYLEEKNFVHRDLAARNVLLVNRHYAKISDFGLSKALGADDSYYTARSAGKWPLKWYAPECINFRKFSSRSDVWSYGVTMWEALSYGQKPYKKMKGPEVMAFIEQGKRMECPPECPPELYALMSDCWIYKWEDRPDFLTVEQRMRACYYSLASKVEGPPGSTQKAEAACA
SPHK1 (human), sequence (Q9NYA1 whole entry, looked up): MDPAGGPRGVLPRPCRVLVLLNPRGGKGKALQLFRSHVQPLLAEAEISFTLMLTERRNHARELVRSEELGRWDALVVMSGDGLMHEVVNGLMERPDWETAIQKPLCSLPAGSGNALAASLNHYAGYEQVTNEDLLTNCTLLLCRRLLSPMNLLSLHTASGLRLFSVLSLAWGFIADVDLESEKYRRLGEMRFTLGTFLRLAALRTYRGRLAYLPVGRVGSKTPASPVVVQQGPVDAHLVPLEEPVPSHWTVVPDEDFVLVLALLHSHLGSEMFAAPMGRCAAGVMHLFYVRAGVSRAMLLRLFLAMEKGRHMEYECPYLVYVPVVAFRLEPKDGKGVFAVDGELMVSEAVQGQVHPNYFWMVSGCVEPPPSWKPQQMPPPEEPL
PLK1 (human), sequence (P53350 whole entry, looked up): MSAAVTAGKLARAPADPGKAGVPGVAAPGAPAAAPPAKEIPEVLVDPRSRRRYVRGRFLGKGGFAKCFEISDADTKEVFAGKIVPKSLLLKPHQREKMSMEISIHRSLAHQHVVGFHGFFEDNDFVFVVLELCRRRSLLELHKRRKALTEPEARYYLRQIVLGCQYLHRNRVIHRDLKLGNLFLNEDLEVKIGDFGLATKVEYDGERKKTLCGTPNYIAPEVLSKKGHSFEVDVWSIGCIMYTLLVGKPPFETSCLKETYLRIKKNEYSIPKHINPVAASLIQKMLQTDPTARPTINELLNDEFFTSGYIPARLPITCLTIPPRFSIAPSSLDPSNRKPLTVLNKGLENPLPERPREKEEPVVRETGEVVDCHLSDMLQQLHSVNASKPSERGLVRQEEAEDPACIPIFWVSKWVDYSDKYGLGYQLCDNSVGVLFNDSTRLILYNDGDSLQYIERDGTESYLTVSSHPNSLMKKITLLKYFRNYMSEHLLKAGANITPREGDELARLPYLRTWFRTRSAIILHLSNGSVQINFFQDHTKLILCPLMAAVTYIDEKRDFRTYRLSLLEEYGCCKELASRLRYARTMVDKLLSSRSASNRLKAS
TEC (human), sequence (P42680 whole entry, looked up): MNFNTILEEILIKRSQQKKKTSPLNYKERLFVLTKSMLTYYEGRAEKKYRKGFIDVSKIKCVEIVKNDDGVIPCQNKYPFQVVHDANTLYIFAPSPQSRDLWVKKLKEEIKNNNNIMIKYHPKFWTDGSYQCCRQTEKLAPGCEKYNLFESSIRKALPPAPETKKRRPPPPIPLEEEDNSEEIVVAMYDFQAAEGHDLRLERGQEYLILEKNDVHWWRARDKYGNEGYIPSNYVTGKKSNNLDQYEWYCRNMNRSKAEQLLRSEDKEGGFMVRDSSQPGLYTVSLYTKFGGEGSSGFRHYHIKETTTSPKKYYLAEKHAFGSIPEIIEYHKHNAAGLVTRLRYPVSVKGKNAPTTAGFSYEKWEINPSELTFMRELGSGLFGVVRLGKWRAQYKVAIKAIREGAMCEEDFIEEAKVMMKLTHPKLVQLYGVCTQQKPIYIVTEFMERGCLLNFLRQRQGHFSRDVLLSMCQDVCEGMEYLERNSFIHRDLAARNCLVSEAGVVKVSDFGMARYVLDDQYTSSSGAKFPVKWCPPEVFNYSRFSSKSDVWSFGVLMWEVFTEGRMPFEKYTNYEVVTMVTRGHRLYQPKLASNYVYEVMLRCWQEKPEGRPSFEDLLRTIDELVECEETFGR
SGK2 (human), sequence (Q9HBY8 whole entry, looked up): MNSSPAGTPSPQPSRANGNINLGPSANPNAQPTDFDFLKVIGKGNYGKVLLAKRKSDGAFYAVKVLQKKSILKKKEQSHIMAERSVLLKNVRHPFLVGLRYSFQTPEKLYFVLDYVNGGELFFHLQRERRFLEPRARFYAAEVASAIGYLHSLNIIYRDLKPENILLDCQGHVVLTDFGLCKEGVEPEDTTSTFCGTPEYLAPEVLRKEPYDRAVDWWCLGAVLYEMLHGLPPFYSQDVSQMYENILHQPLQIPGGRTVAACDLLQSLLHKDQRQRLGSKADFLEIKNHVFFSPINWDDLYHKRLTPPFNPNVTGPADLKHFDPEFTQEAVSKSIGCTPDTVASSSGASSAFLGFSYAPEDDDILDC

Compound: CNC(=O)c1ccccc1Sc1ccc2c(/C=C/c3ccccn3)n[nH]c2c1
- inhibition (AURKA (human); compound 0.001 µM): 13.3%
- inhibition (AURKA (human); compound 0.02 µM): 54.5%
- inhibition (CAMK1D (human); compound 0.001 µM): -0.4%
- inhibition (CAMK1D (human); compound 0.02 µM): -0.8%
- inhibition (CLK1 (human); compound 0.001 µM): 6.6%
- inhibition (CLK1 (human); compound 0.02 µM): -7.5%
- inhibition (CSNK1A1 (human); compound 0.001 µM): -8.2%
- inhibition (CSNK1A1 (human); compound 0.02 µM): -7.8%
- inhibition (DDR1 (human); compound 0.001 µM): -7%
- inhibition (DDR1 (human); compound 0.02 µM): 1.9%
- inhibition (EPHA2 (human); compound 0.001 µM): -8.3%
- inhibition (EPHA2 (human); compound 0.02 µM): -6.2%
- inhibition (INSR (human); compound 0.001 µM): -0.3%
- inhibition (INSR (human); compound 0.02 µM): -8.6%
- inhibition (MARK1 (human); compound 0.001 µM): -3.2%
- inhibition (MARK2 (human); compound 0.001 µM): 3.5%
- inhibition (MARK2 (human); compound 0.02 µM): 11.8%
- inhibition (MST1R (human); compound 0.001 µM): 0.8%
- inhibition (MST1R (human); compound 0.02 µM): 1.8%
- inhibition (NEK6 (human); compound 0.001 µM): -7.6%
- inhibition (NEK6 (human); compound 0.02 µM): -5.8%
- inhibition (NTRK3 (human); compound 0.001 µM): 2.6%
- inhibition (NTRK3 (human); compound 0.02 µM): 12.9%
- inhibition (NUAK1 (human); compound 0.001 µM): 10.2%
- inhibition (NUAK1 (human); compound 0.02 µM): -1.9%
- inhibition (PAK4 (human); compound 0.001 µM): 3.3%
- inhibition (PAK4 (human); compound 0.02 µM): 0.8%
- inhibition (PASK (human); compound 0.001 µM): -6.3%
- inhibition (PASK (human); compound 0.02 µM): -0.6%
- inhibition (PLK1 (human); compound 0.001 µM): -5%
- inhibition (PLK1 (human); compound 0.02 µM): -2.2%
- inhibition (PRKCB1 (human); compound 0.001 µM): 4% and 4.9%
- inhibition (PRKCD (human); compound 0.001 µM): 15.6%
- inhibition (PRKCD (human); compound 0.02 µM): -0.9%
- inhibition (PRKCH (human); compound 0.001 µM): 4.5%
- inhibition (PRKCH (human); compound 0.02 µM): 6.2%
- inhibition (PRKD2 (human); compound 0.001 µM): -4.8%
- inhibition (PRKD2 (human); compound 0.02 µM): -2.1%
- inhibition (PRKD3 (human); compound 0.001 µM): -4.3%
- inhibition (PRKD3 (human); compound 0.02 µM): -1.6%
- inhibition (PRKG2 (human); compound 0.001 µM): -4.8%
- inhibition (PRKG2 (human); compound 0.02 µM): -6%
- inhibition (ROCK1 (human); compound 0.001 µM): 5.8%
- inhibition (ROCK1 (human); compound 0.02 µM): 0.7%
- inhibition (SGK2 (human); compound 0.001 µM): -1.7%
- inhibition (SGK2 (human); compound 0.02 µM): 4.4%
- inhibition (SPHK1 (human); compound 0.001 µM): -4.8%
- inhibition (SPHK1 (human); compound 0.02 µM): -4.1%
- inhibition (SRC (human); compound 0.001 µM): 1.3%
- inhibition (SRC (human); compound 0.02 µM): -0.2%
- inhibition (SRPK3 (human); compound 0.001 µM): -3.3%
- inhibition (SRPK3 (human); compound 0.02 µM): -0.9%
- inhibition (STK3 (human); compound 0.001 µM): -3.8%
- inhibition (STK3 (human); compound 0.02 µM): -2.3%
- inhibition (TAB1 (human); compound 0.001 µM): 1.4%
- inhibition (TAB1 (human); compound 0.02 µM): 1.1%
- inhibition (TEC (human); compound 0.001 µM): 3.2%
- inhibition (TEC (human); compound 0.02 µM): -3.2%
- inhibition (TNK1 (human); compound 0.001 µM): 26.9%
- inhibition (TNK1 (human); compound 0.02 µM): 24.8%
- inhibition (ZAP70 (human); compound 0.001 µM): -0.5%
- inhibition (ZAP70 (human); compound 0.02 µM): 2.7%

Compound: CCN(CC)CCNC(=O)c1c(C)[nH]c(/C=C2\C(=O)Nc3ccc(F)cc32)c1C
- inhibition (AURKA (human); compound 0.2 µM): 31.1%
- inhibition (AURKA (human); compound 4.0 µM): 87.3%
- inhibition (DDR1 (human); compound 0.2 µM): 71.8%
- inhibition (DDR1 (human); compound 4.0 µM): 96.6%
- inhibition (EPHA2 (human); compound 0.2 µM): -1.9%
- inhibition (EPHA2 (human); compound 4.0 µM): 24.9%
- inhibition (MARK1 (human); compound 0.2 µM): 68.8%
- inhibition (MARK1 (human); compound 4.0 µM): 96.8%
- inhibition (MST1R (human); compound 0.2 µM): 6.4%
- inhibition (MST1R (human); compound 4.0 µM): 48.8%
- inhibition (NEK6 (human); compound 0.2 µM): -1.5%
- inhibition (NEK6 (human); compound 4.0 µM): -6.8%
- inhibition (NUAK1 (human); compound 0.2 µM): 95.6%
- inhibition (NUAK1 (human); compound 4.0 µM): 101%
- inhibition (PAK4 (human); compound 0.2 µM): 16.2%
- inhibition (PAK4 (human); compound 4.0 µM): 62.8%
- inhibition (PASK (human); compound 0.2 µM): -4%
- inhibition (PASK (human); compound 4.0 µM): 17.8%
- inhibition (PDGFRB (human); compound 0.2 µM): 98.9%
- inhibition (PDGFRB (human); compound 4.0 µM): 102%
- inhibition (PLK1 (human); compound 0.2 µM): -3.4%
- inhibition (PLK1 (human); compound 4.0 µM): 5.8%
- inhibition (PRKCB1 (human); compound 0.2 µM): 0% and -1.3%
- inhibition (PRKCB1 (human); compound 4.0 µM): 20% and 27.2%
- inhibition (PRKCD (human); compound 0.2 µM): 0.9%
- inhibition (PRKCD (human); compound 4.0 µM): 48.4%
- inhibition (PRKCH (human); compound 0.2 µM): 2.3%
- inhibition (PRKCH (human); compound 4.0 µM): 20.7%
- Ki (PRKD2 (human)): 52 nM
- inhibition (PRKD2 (human); compound 0.2 µM): 65.6%
- inhibition (PRKD2 (human); compound 4.0 µM): 97.9%
- inhibition (PRKD3 (human); compound 0.2 µM): 63.7%
- inhibition (PRKD3 (human); compound 4.0 µM): 97.5%
- inhibition (PRKG2 (human); compound 0.2 µM): 9.3%
- inhibition (PRKG2 (human); compound 4.0 µM): 65.5%
- inhibition (ROCK1 (human); compound 0.2 µM): 8.9%
- inhibition (ROCK1 (human); compound 4.0 µM): 55.4%
- inhibition (SGK2 (human); compound 0.2 µM): 5.5%
- inhibition (SGK2 (human); compound 4.0 µM): 57.6%
- inhibition (SPHK1 (human); compound 0.2 µM): -10.4%
- inhibition (SPHK1 (human); compound 4.0 µM): -9.1%
- inhibition (SRPK3 (human); compound 0.2 µM): 1.1%
- inhibition (SRPK3 (human); compound 4.0 µM): 5.1%
- inhibition (STK3 (human); compound 0.2 µM): 51.4%
- inhibition (STK3 (human); compound 4.0 µM): 95.7%
- inhibition (TAB1 (human); compound 0.2 µM): 83.7%
- inhibition (TAB1 (human); compound 4.0 µM): 101%
- inhibition (TEC (human); compound 0.2 µM): 7.6%
- inhibition (TEC (human); compound 4.0 µM): 31.6%
- inhibition (TNK1 (human); compound 0.2 µM): 32.1%
- inhibition (TNK1 (human); compound 4.0 µM): 88.4%
- inhibition (ZAP70 (human); compound 0.2 µM): 6.8%
- inhibition (ZAP70 (human); compound 4.0 µM): 37.7%
